Results taken from patent US8906416B2, “Xanthenedione derivatives for the treatment of pigmentation and skin ageing disorders” (Pierre Fabre Dermo-Cosmetique, priority 2010, dated 2014).

Assays:
B16-F10 cells = test: Melanin assay test in B16-F10 cells; format: cell-based, murine; conditions: Mus musculus, B16-F10; 0.1 μM α-MSH stimulated, 72 hours treatment; read-out: Results activity B16-F10 IC50 (50% melanin synthesis inhibition)
Procedure: This involves a test of measuring the synthesis of melanin by colorimetric assay on a murine melanoma cell line: the B16-F10 line. This test enables the depigmenting power of active ingredients to be evaluated.
The B16-F10 cells are cultured in 96-well plates in DMEM medium, supplemented with FCS (foetal calf serum), and incubated 24 hours at 37° C., 5% CO2. The cells are then stimulated with 0.1 μM α-MSH (to stimulate the synthesis of melanin, the stimulation observed is around 150%) and treated 72 hours with the active ingredients to be tested. Each concentration of active ingredient is tested at least in triplicate. The total melanin followed by the intracellular melanin dissolved in the lysis buffer are then assayed by absorbance reading at 405 nm. The total proteins are assayed in the lysate and the results are expressed in mg melanin/mg proteins. The percentage of activity is calculated as follows:
[formula] A negative value indicates an inhibition, whereas a positive value indicates an induction of the synthesis of melanin. General Experimental Conditions: • Equipment: • CO2 cell incubator (Heraeus), Oven, Centrifuge (Heraeus), Laminar air flow fume hood, 96-well clear bottomed plates—Falcon, sterile cones—Treff Lab, Polylabo, Mithras LB940 (Berthold Technologies)-154/MIPA/003 Biological Equipment: • B16-F10 cell line between P10 and P20 (murine melanocytes) (ATCC, CRL-6475) • Reagents • DMEM without phenol red (GIBCOBRL, 31053-028), 200 mM Glutamax-I Supplement (GIBCOBRL, 35050-038), D-PBS (GIBCOBRL, 14190-094), Foetal calf serum (Invitrogen, 10270-098), Trypsine-EDTA (GIBCOBRL, 25300-054), NaOH (Sigma, S8045-500G), DMSO (Sigma, 471267-1L), Nle, Phe—Melanocyte Stimulating Hormone (Sigma, M-8764), Melanin (Sigma, M-0418), BCA-COPPER (SIGMA, B9643 AND C2284), BSA (SIGMA, P0914) B) Test for the Study of the Antioxidant Capacity by Chemiluminescence (Photochem Analytik Jena) Principle: […]

[1] = tested on: Melanoderm-B (Black) reconstructed epidermis; test: Reconstructed epidermis depigmenting activity, Melanoderm-B; format: cell-based; conditions: D3, D7, D10 and D14, 0.5% in Simplex formula
Excerpt: (§1) The compounds of examples 8 and 21 were formulated at the concentration of 0.5% in a Simplex formula according to the example of composition A. Melanoderm-B (Black) or Melanoderm A (Asian) (MatTek, USA) reconstructed epidermis models were used. The reference compound chosen is kojic acid titrated to 2% in aqueous solution. The culture medium is changed every day. The products are applied by topical mode on the epidermis every two days. For the application, the epidermises are rinsed with PBS and the product to be tested is then applied. A preliminary toxicity study made it possible to determine that the dose to apply for each treatment is 25 μL. The tissues were observed on D3, D7, D10, D14 (Melanoderm B) or D6, D10, D14 and D21 (Melanoderm A) by 3 independent experts.

[2] = tested on: Melanoderm A (Asian) reconstructed epidermis; test: Reconstructed epidermis depigmenting activity, Melanoderm A; format: cell-based
Excerpt: as §1, with “experts. The formula containing example 8 was also tested in a Melanoderm-A (Asian) model. The coloration of the epidermis is compared to that of the simplex control formula.” for “experts.”

IC50 (B16-F10 cells) [µM] | SMILES | Coloration of the epidermis compared to negative control (water) [1] | Melanin assay: reduction of melanin with respect to epidermises treated by the Simplex control formula ([2]; 0.5% in Simplex formula) [µg] | Coloration of the epidermis compared to the simplex control formula ([2]; D6, D10, D14, D21, 0.5% in Simplex formula)
69 | COc1cc(C2C3=C(CC(C)(C)CC3=O)OC3=C2C(=O)CC(C)(C)C3)ccc1O[C@@H]1OC(CO)[C@@H](O)C(O)C1O (stereo in doubt) [Example 21, 9-(3-methoxy-4-((3S,4 S,5S)-3,4,5-trihydroxy-6-(hydroxymethyl)tetrahydro-2H-pyran-2-yloxy)phenyl)-3,3,6,6-tetramethyl-3,4,5,6,7,9-hexahydro-1H-xanthene-1,8(2H)-dione] | macroscopic depigmenting effect |  | 
 | CCCCCCCCCCCCCCCC(=O)Oc1ccc(C2C3=C(CC(C)(C)CC3=O)OC3=C2C(=O)CC(C)(C)C3)cc1OC [Example 8, 2-methoxy-4-(3,3,6,6-tetramethyl-1,8-dioxo-2,3,4,5,6,7,8,9-octahydro-1H-xanthen-9-yl)phenyl palmitate] | macroscopic depigmenting effect | 4.1 | macroscopic depigmenting effect
